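Results reflect a 48-hour exposure of cells in 96-well plates to compound at five concentrations. TGI: total growth inhibition.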 A value given as a limit tells only on which side of the number the result lay.

Test systems include MDA-MB-231 breast; ACHN renal; UO-31 renal; HCC-2998 colon; SK-MEL-5 melanoma; KM12 colon; CCRF-CEM leukemia; SF-539 CNS; HS 578T breast; SF-268 CNS; COLO 205 colon; A498 renal; IGROV1 ovarian; EKVX NSCLC; TK-10 renal; MOLT-4 leukemia; OVCAR-8 ovarian; MALME-3M melanoma; HL-60(TB) leukemia.
Assay in all cases: NCI-60 cell line screen, 48 h

Turning to `CCN1C[C@]2(C)CC[C@H](OCc3ccccc3)C34C5C[C@@H]6CC[C@](O)(C(C[C@@H]32)C14)C5[C@H]6OCc1ccccc1` (stereo partly drawn), the TGI in the assay with MDA-MB-231 breast, in the assay with ACHN renal, in the assay with UO-31 renal, with HCC-2998 colon, with SK-MEL-5 melanoma and in the assay on KM12 colon was above 100 µM in each case. Moreover, the TGI in the assay with CCRF-CEM leukemia, in the assay on SF-539 CNS, in the assay on HS 578T breast, with SF-268 CNS, in the assay with COLO 205 colon and in the assay on A498 renal was above 100 µM throughout. The TGI in the assay on IGROV1 ovarian, in the assay with EKVX NSCLC, in the assay with TK-10 renal, with MOLT-4 leukemia, in the assay on OVCAR-8 ovarian and with MALME-3M melanoma was above 100 µM in each case.

With `COc1ccc([C@H](NC(=O)c2ccccc2)[C@@H](O)C(=O)O[C@H]2C[C@@]3(O)C(OC(=O)c4ccccc4)C4[C@](C)(C(=O)[C@H](OC(C)=O)C(=C2C)C3(C)C)[C@@H](O)C[C@H]2OC[C@@]42OC(C)=O)cc1` (stereo partly drawn), the TGI in the assay on HL-60(TB) leukemia was 0.0279 µM; with MDA-MB-231 breast, above 10 µM; with ACHN renal, above 10 µM; in the assay on HCC-2998 colon, 0.091 µM; in the assay with SK-MEL-5 melanoma it was above 10 µM; with CCRF-CEM leukemia, above 10 µM. For the same molecule, the TGI with SF-539 CNS was 0.00758 µM; in the assay with HS 578T breast, 0.0122 µM; in the assay on SF-268 CNS it was above 10 µM; in the assay on COLO 205 colon, 0.0123 µM; in the assay with IGROV1 ovarian it was above 10 µM; in the assay on EKVX NSCLC, above 10 µM. Further, the TGI is above 10 µM in the assay on TK-10 renal, above 5.11 µM in the assay on MOLT-4 leukemia, above 10 µM in the assay with OVCAR-8 ovarian and above 10 µM with MALME-3M melanoma.

`CC1=NN(C(=O)c2ccccc2O)C(c2ccccc2Cl)C1C(=O)Nc1ccccc1` (stereo not drawn): the TGI was 7.24 µM in the assay on HL-60(TB) leukemia; above 100 µM with MDA-MB-231 breast; above 100 µM in the assay on ACHN renal; above 100 µM in the assay with HCC-2998 colon; 30.5 µM in the assay with SK-MEL-5 melanoma; above 100 µM in the assay with KM12 colon. In addition, the TGI is 0.245 µM in the assay with CCRF-CEM leukemia; 5.68 µM in the assay with SF-539 CNS; above 100 µM in the assay with HS 578T breast; 30.8 µM with SF-268 CNS; above 100 µM in the assay on COLO 205 colon; above 32.4 µM in the assay on IGROV1 ovarian. In addition, the TGI was above 100 µM in the assay with EKVX NSCLC; above 100 µM in the assay with TK-10 renal; above 85.7 µM with MOLT-4 leukemia; above 100 µM with OVCAR-8 ovarian; 51.9 µM with MALME-3M melanoma.

On to `COc1ccc(NS(=O)c2ccc(OC)cc2)cc1` (stereo not drawn), for which the TGI was above 100 µM in the assay on HL-60(TB) leukemia; above 100 µM in the assay with MDA-MB-231 breast; above 100 µM with ACHN renal; 48.5 µM in the assay on UO-31 renal; above 100 µM in the assay with HCC-2998 colon; above 100 µM in the assay on SK-MEL-5 melanoma. Further, the TGI in the assay with KM12 colon is 24.1 µM; with CCRF-CEM leukemia, above 100 µM; with SF-539 CNS it was 32.5 µM; in the assay on HS 578T breast, above 100 µM; in the assay on SF-268 CNS it was 74.4 µM; in the assay on COLO 205 colon, above 100 µM. The TGI is 99.4 µM in the assay on IGROV1 ovarian; above 100 µM in the assay on EKVX NSCLC; above 100 µM in the assay on TK-10 renal; above 100 µM in the assay with MOLT-4 leukemia; above 100 µM in the assay on OVCAR-8 ovarian; 90.9 µM with MALME-3M melanoma.

As to `COc1cc(-c2oc(C=Nc3ccccc3)c([N+](=O)[O-])c2-c2ccc(O)c(OC)c2)ccc1O`, the TGI in the assay with HL-60(TB) leukemia was 4.28 µM; in the assay with MDA-MB-231 breast, above 95.7 µM; in the assay on ACHN renal it was 32 µM; in the assay with UO-31 renal, 29.6 µM; with HCC-2998 colon it was 30.5 µM; in the assay with SK-MEL-5 melanoma it was above 79.5 µM. Also, the TGI is above 85.4 µM in the assay with KM12 colon; above 100 µM in the assay with CCRF-CEM leukemia; 42.9 µM in the assay on SF-539 CNS; above 100 µM in the assay with HS 578T breast; 73.7 µM with SF-268 CNS; above 63.2 µM in the assay with COLO 205 colon. In addition, the TGI is 52.5 µM with IGROV1 ovarian; above 73.9 µM in the assay on EKVX NSCLC; 39.5 µM in the assay with TK-10 renal; above 84.7 µM in the assay on MOLT-4 leukemia; above 54.9 µM in the assay with OVCAR-8 ovarian.

`CC(C)c1ccc2[nH]c(O)c(C3=Nc4ccccc4C3=O)c2c1`: the TGI was 48 µM with MDA-MB-231 breast; 18.6 µM in the assay with ACHN renal; above 100 µM in the assay on UO-31 renal; above 100 µM with HCC-2998 colon; above 100 µM in the assay with SK-MEL-5 melanoma; above 100 µM with KM12 colon. The TGI was above 100 µM in the assay on CCRF-CEM leukemia; 85.3 µM in the assay on HS 578T breast; above 100 µM in the assay with SF-268 CNS; above 100 µM in the assay with COLO 205 colon; 5.5 µM with A498 renal; 65.8 µM with IGROV1 ovarian. Besides, the TGI with EKVX NSCLC was 42.8 µM; with TK-10 renal, 54.2 µM; in the assay on MOLT-4 leukemia, 61.5 µM; in the assay with OVCAR-8 ovarian, above 100 µM; in the assay with MALME-3M melanoma it was above 100 µM.

Turning to `O=C(/C=C(\O)c1ccc(Cl)cc1)C(=O)NN=C(c1ccccc1)c1ccccc1`, the TGI with MDA-MB-231 breast is 65.1 µM; with ACHN renal, above 100 µM; with UO-31 renal it was 90.4 µM; with HCC-2998 colon, above 100 µM; in the assay with SK-MEL-5 melanoma it was above 100 µM; with KM12 colon, above 100 µM. Also, the TGI with CCRF-CEM leukemia was 98.5 µM; in the assay with SF-539 CNS it was above 100 µM; in the assay with HS 578T breast it was 85.3 µM; with SF-268 CNS, above 100 µM; with COLO 205 colon it was 74.4 µM; in the assay with A498 renal, 47.2 µM. Also, the TGI in the assay on IGROV1 ovarian is above 100 µM; in the assay with EKVX NSCLC it was above 100 µM; with TK-10 renal, above 100 µM; with MOLT-4 leukemia, 95.1 µM; with OVCAR-8 ovarian, 97.6 µM; in the assay on MALME-3M melanoma it was above 100 µM.

Regarding `O=C(Cc1ccccc1)NNc1nc(NNC(=O)c2ccncc2)nc(Nc2ccc(Cl)cc2)n1`, the TGI in the assay on HL-60(TB) leukemia, with MDA-MB-231 breast, with UO-31 renal, in the assay on HCC-2998 colon, in the assay on SK-MEL-5 melanoma and in the assay on KM12 colon was above 10 µM throughout. Also, the TGI in the assay on CCRF-CEM leukemia, in the assay on SF-539 CNS, in the assay on HS 578T breast, with SF-268 CNS, with COLO 205 colon and in the assay with IGROV1 ovarian was above 10 µM in each case. Also, the TGI in the assay on EKVX NSCLC, in the assay on TK-10 renal, with MOLT-4 leukemia, with OVCAR-8 ovarian and with MALME-3M melanoma was above 10 µM throughout.

(Values after PubChem BioAssay (NCI).)
